Source: PMC12063043, “Exploring Tyramine's Role in the Formation of Supramolecular Adducts with Nonsteroidal Anti‐Inflammatory Drugs” (Chemistry (Weinheim an Der Bergstrasse, Germany), 2025)
Values after ≈ are worked out from the molar mass of the structure shown.

Tests used:
[1] = ref PubChem; cited from earlier work
[2] = Aqueous solubility tests by solution 1H NMR; conditions: for solubility at 3 days: deionized water, water, thermodynamic from solid
[3] = pKa of the co-former TYA and the APIs, and ΔpKa rule; format: physicochemical; conditions: heading: ΔpKa [= pKa – pKa]; for the adduct of the API (acid) with TYA (base)

SMILES	pKa [1]	solubility at 3 days [2] [µg/mL]	ΔpKa [3]	Increase in aqueous solubility of adduct versus pure API ([2]; aqueous solution, adduct versus pure API) [fold]	Aqueous solubility ([2]; deionized H2O, stirred 3 days, filtered, 1H NMR at 298 K with TSP internal standard, concentration of the drug in solution, average of three measurements ± standard deviation) [µg/mL]
NCCc1ccc(O)cc1 [TYA, 4‐(2‐aminoethyl)phenol]	9.66^[ ^a ^]	–	–	–	–
CC(C(=O)O)c1ccc(-c2ccccc2)c(F)c1 (racemic) [FLU, (±)‐2‐(2‐fluorobiphenyl‐4‐yl)propionic acid]	–	19 ± 2 (≈ 77.8 µM)	5.44	–	–
O=C(O)c1cc(-c2ccc(F)cc2F)ccc1O [DIF, 2′,4′‐difluoro‐4‐hydroxy‐[1,1′‐biphenyl]‐3‐carboxylic acid]	–	28 ± 2 (≈ 112 µM)	6.36	–	–
NCCc1ccc(O)cc1.O=C(O)c1cc(-c2ccc(F)cc2F)ccc1O [DIF-TYA Form II]	–	–	–	17	473 ± 79
